The molecules below were run against T1, human HIF-PHD2 (Homo sapiens, UniProt Q9GZT9) (assay: HIF-PHD inhibition assay (fluorescence polarization), human HIF-PHD2). Conditions: 2-oxoglutaric acid 3.33 μmol/L.
T1 construct: purchased CrystalGenomics Ltd
T1 sequence (Q9GZT9 2-426 limits assumed): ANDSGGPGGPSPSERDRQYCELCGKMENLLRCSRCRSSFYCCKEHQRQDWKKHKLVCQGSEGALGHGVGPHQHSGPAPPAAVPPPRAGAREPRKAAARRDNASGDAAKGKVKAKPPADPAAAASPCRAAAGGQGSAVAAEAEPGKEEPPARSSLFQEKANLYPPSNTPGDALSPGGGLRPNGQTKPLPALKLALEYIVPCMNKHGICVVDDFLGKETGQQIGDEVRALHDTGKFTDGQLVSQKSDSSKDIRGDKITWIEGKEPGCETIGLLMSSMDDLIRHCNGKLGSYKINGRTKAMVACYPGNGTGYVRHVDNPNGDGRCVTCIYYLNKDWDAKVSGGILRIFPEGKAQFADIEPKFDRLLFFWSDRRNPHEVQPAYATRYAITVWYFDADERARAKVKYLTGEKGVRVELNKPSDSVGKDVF
Assay type: biochemical
Method: (§1) The activity of the test compound to inhibit human HIF-PHD2 and human HIF-PHD3 was determined.
(§2) The value of enzyme activity was calculated by subtracting the value of fluorescence polarization before addition of the enzyme from the value of fluorescence polarization after addition of enzyme (mP value).
(§3) FAM: 5′-fluoresceinamide ACA: aminocaproic acid
`C[C@@H](c1cc(F)ccc1F)n1nc(C2CC2)c2nc(-n3cc(C(=O)O)cn3)nc(O)c21` [Example 461] showed an IC50 of 230 nM. `Cn1nc(-c2ccccc2)c2nc(-n3cc(C(=O)O)cn3)nc(O)c21` [Example 502] gave an IC50 greater than 300 nM. With `C[C@H](C1CCCCC1)n1nc(F)c2nc(-n3cc(C(=O)O)cn3)nc(O)c21` [Example 469] the IC50 was 76 nM. `CC(C)(C)[C@H]1CC[C@@H](n2ncc3nc(-n4cc(C(=O)O)cn4)nc(O)c32)CC1` [Example 391] showed an IC50 of 72 nM. With `CC(c1cc(Cl)c(Cl)s1)n1ncc2nc(-n3cc(C(=O)O)cn3)nc(O)c21` (stereo not drawn) [Example 319] the IC50 was 85 nM. For `CC[C@@H](c1ccc(OC(F)(F)F)c(Cl)c1)n1ncc2nc(-n3cc(C(=O)O)cn3)nc(O)c21` [Example 353], the IC50 was 14 nM. `CC1(C)CC(n2ncc3nc(-n4cc(C(=O)O)cn4)nc(O)c32)CC(C)(C)C1` [Example 387] gave an IC50 of 30 nM. With `O=C(O)c1cnn(-c2nc(O)c3nn(CC4(COc5ccc6c(c5)CCCC6)CC4)cc3n2)c1` [Example 249] the IC50 was 26 nM. In the case of `Cc1nn([C@@H](C)c2cc(F)ccc2F)c2c(O)nc(-n3cc(C(=O)O)cn3)nc12` [Example 453], the IC50 is reported as 250 nM. With `C[C@@H](C1CCN(c2ccc(C(F)(F)F)cc2)CC1)n1ncc2nc(-n3cc(C(=O)O)cn3)nc(O)c21` [Example 431] the IC50 was 17 nM. `O=C(O)c1cnn(-c2nc(O)c3c(cnn3C(c3ccc(F)cc3)C3CC3)n2)c1` (single isomer, unassigned) [Example 367] was tested, and the IC50 was 34 nM. For `CCC(c1cc(C(F)(F)F)cc(C(F)(F)F)c1)n1ncc2nc(-n3cc(C(=O)O)cn3)nc(O)c21` (stereo not drawn) [Example 334], the IC50 was 260 nM. With `CC[C@H]1CC[C@H](n2ncc3nc(-n4cc(C(=O)O)cn4)nc(O)c32)CC1` [Example 388] the IC50 was 47 nM. `C[C@@H](c1ccc(OC(F)(F)F)cc1)n1ncc2nc(-n3cc(C(=O)O)cn3)nc(O)c21` [Example 276] gave an IC50 of 15 nM. `CCC(c1cccc(C(F)(F)F)c1)n1ncc2nc(-n3cc(C(=O)O)cn3)nc(O)c21` (stereo not drawn) [Example 341] was tested, and the IC50 was 52 nM. `C[C@@H](c1ccc(F)cc1F)n1ncc2nc(-n3cc(C(=O)O)cn3)nc(O)c21` [Example 255] was tested, and the IC50 was 64 nM. For `Cc1ccc(C(C)n2ncc3nc(-n4cc(C(=O)O)cn4)nc(O)c32)cc1Cl` (single isomer, unassigned) [Example 298], the IC50 was 29 nM. `Cc1ccc(F)c(C(C)n2ncc3nc(-n4cc(C(=O)O)cn4)nc(O)c32)c1` (stereo not drawn) [Example 313] was tested, and the IC50 was 40 nM. Molecule `CCC(c1ccc(C)c(Cl)c1)n1ncc2nc(-n3cc(C(=O)O)cn3)nc(O)c21` (single isomer, unassigned) [Example 349] has an IC50 of 67 nM. `C[C@H]1CC[C@H](n2nc(F)c3nc(-n4cc(C(=O)O)cn4)nc(O)c32)CC1` [Example 479] was tested, and the IC50 was 42 nM. `CC(c1cc(F)cc(Cl)c1)n1ncc2nc(-n3cc(C(=O)O)cn3)nc(O)c21` (single isomer, unassigned) [Example 306] gave an IC50 of 62 nM. Work on `CC[C@@H](c1ccc(Cl)c(Cl)c1)n1nc(C)c2nc(-n3cc(C(=O)O)cn3)nc(O)c21` [Example 455] yielded an IC50 of 65 nM. Work on `CC(C)[C@@H]1CC[C@@H](C)[C@@H](n2ncc3nc(-n4cc(C(=O)O)cn4)nc(O)c32)C1` [Example 406] yielded an IC50 of 170 nM. In the case of `C[C@@H](c1ccc(F)cc1Cl)n1cc2nc(-n3cc(C(=O)O)cn3)nc(O)c2n1` [Example 505], the IC50 is reported as 51 nM. Molecule `CCC(c1ccc(Cl)c(C)c1)n1ncc2nc(-n3cc(C(=O)O)cn3)nc(O)c21` (stereo not drawn) [Example 346] has an IC50 of 65 nM. `CC(c1cc(F)cc(Cl)c1)n1ncc2nc(-n3cc(C(=O)O)cn3)nc(O)c21` (stereo not drawn) [Example 305] showed an IC50 of 59 nM. `Cc1nn(Cc2ccc3ccccc3c2)c2c(O)nc(-n3cc(C(=O)O)cn3)nc12` [Example 445] was tested, and the IC50 was 20 nM. For `CC(C)C(c1ccc(F)cc1)n1ncc2nc(-n3cc(C(=O)O)cn3)nc(O)c21` (single isomer, unassigned) [Example 355], the IC50 was 120 nM. For `C[C@@H](c1ccc2c(c1)CCCC2)n1ncc2nc(-n3cc(C(=O)O)cn3)nc(O)c21` [Example 290], the IC50 was 38 nM. Molecule `C[C@H](c1ccc(C(F)(F)F)cc1)n1ncc2nc(-n3cc(C(=O)O)cn3)nc(O)c21` [Example 284] has an IC50 of 150 nM.

What follows are molecules tested against T2, human HIF-PHD3 (Homo sapiens, UniProt Q9H6Z9) (assay: HIF-PHD inhibition assay (fluorescence polarization), human HIF-PHD3). Conditions: 2-oxoglutaric acid 166 μmol/L.
T2 construct: purchased CrystalGenomics Ltd
T2 sequence (Q9H6Z9 whole entry): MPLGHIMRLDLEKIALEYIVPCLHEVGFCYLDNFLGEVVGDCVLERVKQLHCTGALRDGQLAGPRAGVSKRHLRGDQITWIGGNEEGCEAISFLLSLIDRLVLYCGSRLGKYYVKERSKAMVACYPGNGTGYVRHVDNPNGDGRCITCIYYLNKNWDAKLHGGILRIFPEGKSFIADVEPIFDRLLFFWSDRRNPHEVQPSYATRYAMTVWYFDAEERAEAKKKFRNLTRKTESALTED
Assay type: biochemical
Method: as §1, §2, §3
With `C[C@@H](c1cc(F)ccc1F)n1nc(C2CC2)c2nc(-n3cc(C(=O)O)cn3)nc(O)c21` [Example 461] the IC50 was 1600 nM. In the case of `Cn1nc(-c2ccccc2)c2nc(-n3cc(C(=O)O)cn3)nc(O)c21` [Example 502], the IC50 is reported as 1200 nM. `C[C@H](C1CCCCC1)n1nc(F)c2nc(-n3cc(C(=O)O)cn3)nc(O)c21` [Example 469] gave an IC50 of 1200 nM. In the case of `CC(C)(C)[C@H]1CC[C@@H](n2ncc3nc(-n4cc(C(=O)O)cn4)nc(O)c32)CC1` [Example 391], the IC50 is reported as 1100 nM. In the case of `CC(c1cc(Cl)c(Cl)s1)n1ncc2nc(-n3cc(C(=O)O)cn3)nc(O)c21` (stereo not drawn) [Example 319], the IC50 is reported as 520 nM. Work on `CC[C@@H](c1ccc(OC(F)(F)F)c(Cl)c1)n1ncc2nc(-n3cc(C(=O)O)cn3)nc(O)c21` [Example 353] yielded an IC50 of 490 nM. `CC1(C)CC(n2ncc3nc(-n4cc(C(=O)O)cn4)nc(O)c32)CC(C)(C)C1` [Example 387] was tested, and the IC50 was 780 nM. In the case of `O=C(O)c1cnn(-c2nc(O)c3nn(CC4(COc5ccc6c(c5)CCCC6)CC4)cc3n2)c1` [Example 249], the IC50 is reported as 280 nM. In the case of `Cc1nn([C@@H](C)c2cc(F)ccc2F)c2c(O)nc(-n3cc(C(=O)O)cn3)nc12` [Example 453], the IC50 is reported as 1500 nM. `C[C@@H](C1CCN(c2ccc(C(F)(F)F)cc2)CC1)n1ncc2nc(-n3cc(C(=O)O)cn3)nc(O)c21` [Example 431] was tested, and the IC50 was 280 nM. `O=C(O)c1cnn(-c2nc(O)c3c(cnn3C(c3ccc(F)cc3)C3CC3)n2)c1` (single isomer, unassigned) [Example 367] was tested, and the IC50 was 350 nM. `CCC(c1cc(C(F)(F)F)cc(C(F)(F)F)c1)n1ncc2nc(-n3cc(C(=O)O)cn3)nc(O)c21` (stereo not drawn) [Example 334] gave an IC50 of 2500 nM. `CC[C@H]1CC[C@H](n2ncc3nc(-n4cc(C(=O)O)cn4)nc(O)c32)CC1` [Example 388] showed an IC50 of 510 nM. `C[C@@H](c1ccc(OC(F)(F)F)cc1)n1ncc2nc(-n3cc(C(=O)O)cn3)nc(O)c21` [Example 276] was tested, and the IC50 was 380 nM. `CCC(c1cccc(C(F)(F)F)c1)n1ncc2nc(-n3cc(C(=O)O)cn3)nc(O)c21` (stereo not drawn) [Example 341] showed an IC50 of 790 nM. Molecule `C[C@@H](c1ccc(F)cc1F)n1ncc2nc(-n3cc(C(=O)O)cn3)nc(O)c21` [Example 255] has an IC50 of 540 nM. In the case of `Cc1ccc(C(C)n2ncc3nc(-n4cc(C(=O)O)cn4)nc(O)c32)cc1Cl` (single isomer, unassigned) [Example 298], the IC50 is reported as 300 nM. `Cc1ccc(F)c(C(C)n2ncc3nc(-n4cc(C(=O)O)cn4)nc(O)c32)c1` (stereo not drawn) [Example 313] was tested, and the IC50 was 900 nM. Work on `CCC(c1ccc(C)c(Cl)c1)n1ncc2nc(-n3cc(C(=O)O)cn3)nc(O)c21` (single isomer, unassigned) [Example 349] yielded an IC50 of 390 nM. `C[C@H]1CC[C@H](n2nc(F)c3nc(-n4cc(C(=O)O)cn4)nc(O)c32)CC1` [Example 479] showed an IC50 of 260 nM. `CC(c1cc(F)cc(Cl)c1)n1ncc2nc(-n3cc(C(=O)O)cn3)nc(O)c21` (single isomer, unassigned) [Example 306] gave an IC50 of 450 nM. In the case of `CC[C@@H](c1ccc(Cl)c(Cl)c1)n1nc(C)c2nc(-n3cc(C(=O)O)cn3)nc(O)c21` [Example 455], the IC50 is reported as 790 nM. `CC(C)[C@@H]1CC[C@@H](C)[C@@H](n2ncc3nc(-n4cc(C(=O)O)cn4)nc(O)c32)C1` [Example 406] was tested, and the IC50 was 680 nM. `C[C@@H](c1ccc(F)cc1Cl)n1cc2nc(-n3cc(C(=O)O)cn3)nc(O)c2n1` [Example 505] was tested, and the IC50 was 440 nM. `CCC(c1ccc(Cl)c(C)c1)n1ncc2nc(-n3cc(C(=O)O)cn3)nc(O)c21` (stereo not drawn) [Example 346] gave an IC50 of 530 nM. Work on `CC(c1cc(F)cc(Cl)c1)n1ncc2nc(-n3cc(C(=O)O)cn3)nc(O)c21` (stereo not drawn) [Example 305] yielded an IC50 of 590 nM. Work on `Cc1nn(Cc2ccc3ccccc3c2)c2c(O)nc(-n3cc(C(=O)O)cn3)nc12` [Example 445] yielded an IC50 of 400 nM. `CC(C)C(c1ccc(F)cc1)n1ncc2nc(-n3cc(C(=O)O)cn3)nc(O)c21` (single isomer, unassigned) [Example 355] gave an IC50 of 540 nM. With `C[C@@H](c1ccc2c(c1)CCCC2)n1ncc2nc(-n3cc(C(=O)O)cn3)nc(O)c21` [Example 290] the IC50 was 400 nM. `C[C@H](c1ccc(C(F)(F)F)cc1)n1ncc2nc(-n3cc(C(=O)O)cn3)nc(O)c21` [Example 284] gave an IC50 of 830 nM.

— US20150239889A1, “PYRAZOLOPYRIMIDINE COMPOUND” (MITSUBISHI TANABE PHARMA CORPORATION, priority 2012, published 2015)
